Some test systems named below: 786-0 renal; A549 NSCLC; HT29 colon; K-562 leukemia; LOX IMVI melanoma; MALME-3M melanoma; NCI-H460 lung; RXF 393 renal; SF-268 CNS; SK-OV-3 ovarian; SNB-19 CNS; TK-10 renal; U251 CNS; UACC-62 melanoma; CAKI-1 renal; HOP-62 NSCLC; IGROV1 ovarian; SK-MEL-28 melanoma; UACC-257 melanoma.
Holding throughout (experiment): NCI anticancer screen, dose series, 48 h

Each structure is given as a SMILES string.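 Grown in 96-well plates, cells were treated for 48 hours with each compound at five concentrations. Insufficient inhibition: endpoint recorded as highest concentration tested. The concentration for full growth arrest is given as TGI.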

Regarding `COc1cc2cc(C(=O)N3CC(CCl)c4c3cc(O)c3ccccc43)[nH]c2c(OC)c1OC` (centres undefined), the TGI in the test with 786-0 renal is 0.506 µM; in the test on A549 NSCLC, greater than 50 µM; in the test with HT29 colon, greater than 50 µM; with K-562 leukemia, greater than 50 µM; with LOX IMVI melanoma it was 0.625 µM; in the test with MALME-3M melanoma, less than 0.005 µM. Moreover, the TGI with NCI-H460 lung was less than 0.005 µM; in the test with RXF 393 renal, less than 0.005 µM; with SF-268 CNS, 10.8 µM; with SK-OV-3 ovarian, 0.996 µM; in the test with SNB-19 CNS it was 1.12 µM; in the test on TK-10 renal, greater than 50 µM. The TGI in the test on U251 CNS is 24.6 µM; with UACC-62 melanoma it was 0.291 µM.

For the compound `Clc1ccc(C2=NOC3C4CCC(C4)C23)cc1` (centres undefined), the TGI in the test on 786-0 renal, with A549 NSCLC, with CAKI-1 renal, with HOP-62 NSCLC, in the test on HT29 colon and in the test on IGROV1 ovarian was greater than 100 µM throughout. Also, the TGI in the test on K-562 leukemia, in the test on MALME-3M melanoma, in the test on NCI-H460 lung, with SF-268 CNS, with SK-MEL-28 melanoma and in the test on SK-OV-3 ovarian was greater than 100 µM throughout. Besides, the TGI in the test with SNB-19 CNS, in the test on TK-10 renal, in the test on U251 CNS, in the test with UACC-257 melanoma and with UACC-62 melanoma was greater than 100 µM in each case.

Regarding `CN(C)Cc1cc(C(=O)/C=C/c2ccc(F)cc2)cc(CN(C)C)c1O`, the TGI in the test with 786-0 renal was greater than 100 µM; with A549 NSCLC, greater than 100 µM; in the test on CAKI-1 renal, 67.3 µM; with HOP-62 NSCLC, 58.5 µM; in the test on HT29 colon, greater than 100 µM; in the test with IGROV1 ovarian, greater than 100 µM. The TGI with K-562 leukemia was determined as 62.5 µM; in the test on LOX IMVI melanoma, 20.7 µM; with MALME-3M melanoma, 36.5 µM; in the test with NCI-H460 lung, 22.3 µM; in the test on RXF 393 renal it was 46.9 µM; with SF-268 CNS it was 63.9 µM. Besides, the TGI in the test on SK-MEL-28 melanoma was greater than 100 µM; in the test on SNB-19 CNS, greater than 100 µM; with TK-10 renal, greater than 100 µM; in the test with U251 CNS, greater than 100 µM; in the test with UACC-257 melanoma, 31 µM; in the test with UACC-62 melanoma it was 8.98 µM.

Regarding `COc1ccc(-c2nc3c(nc2-c2ccc(OC)cc2)N(C)S(=O)(=O)N=C3N)cc1`, the TGI in the test on 786-0 renal was 50.1 µM; in the test on A549 NSCLC, greater than 100 µM; with CAKI-1 renal, 94.9 µM; with HOP-62 NSCLC, greater than 100 µM; in the test on HT29 colon, 74.9 µM; with IGROV1 ovarian it was greater than 100 µM. Further, the TGI in the test on K-562 leukemia is greater than 100 µM; with LOX IMVI melanoma, 29.9 µM; in the test on MALME-3M melanoma, 58.8 µM; in the test with NCI-H460 lung, greater than 100 µM; in the test on RXF 393 renal, 44.1 µM; with SF-268 CNS, greater than 100 µM. The TGI in the test with SK-MEL-28 melanoma is greater than 100 µM; with SK-OV-3 ovarian, 88.8 µM; in the test with SNB-19 CNS, greater than 100 µM; in the test with TK-10 renal it was greater than 100 µM; in the test with U251 CNS it was greater than 100 µM; in the test on UACC-62 melanoma it was 94.3 µM.

As to `O=C1CCC2(c3ccccc3)Nc3ccc(Cl)cc3N12` (centres undefined), the TGI in the test with 786-0 renal, in the test with A549 NSCLC, in the test with CAKI-1 renal, in the test on HOP-62 NSCLC, in the test with HT29 colon and with IGROV1 ovarian was greater than 100 µM in each case. The TGI with K-562 leukemia, in the test with LOX IMVI melanoma, with MALME-3M melanoma, with NCI-H460 lung, in the test on RXF 393 renal and in the test with SF-268 CNS was greater than 100 µM throughout. Besides, the TGI in the test with SK-MEL-28 melanoma, in the test with SK-OV-3 ovarian, with TK-10 renal, with U251 CNS, in the test on UACC-257 melanoma and in the test on UACC-62 melanoma was greater than 100 µM throughout.

With `O=[N+]([O-])c1ccc(COc2cccc3cccnc23)cc1`, the TGI with 786-0 renal was 90.6 µM; with A549 NSCLC, greater than 100 µM; in the test on CAKI-1 renal, 75 µM; in the test with HOP-62 NSCLC, greater than 100 µM; with HT29 colon, greater than 100 µM; in the test on IGROV1 ovarian it was 67.7 µM. The TGI in the test with K-562 leukemia is 35.9 µM; in the test on LOX IMVI melanoma, 29.2 µM; in the test with MALME-3M melanoma it was greater than 100 µM; with NCI-H460 lung it was 17.2 µM; in the test on RXF 393 renal it was greater than 100 µM; in the test with SF-268 CNS it was 68.7 µM. Besides, the TGI was 85 µM in the test on SK-MEL-28 melanoma; greater than 100 µM in the test with SK-OV-3 ovarian; greater than 100 µM with SNB-19 CNS; 52.5 µM in the test on TK-10 renal; greater than 100 µM with U251 CNS; 54.8 µM in the test with UACC-257 melanoma. Further, the TGI in the test on UACC-62 melanoma was 45.2 µM.

`O=S(=O)(O)c1ccccc1N=Nc1ccc(N=Nc2c(O)ccc3ccccc23)c(S(=O)(=O)O)c1`: the TGI with 786-0 renal, in the test on A549 NSCLC, with CAKI-1 renal, in the test on HOP-62 NSCLC, in the test on HT29 colon and in the test on IGROV1 ovarian was greater than 100 µM in each case. Also, the TGI with K-562 leukemia, in the test with MALME-3M melanoma, with RXF 393 renal, with SF-268 CNS, in the test with SK-MEL-28 melanoma and with SK-OV-3 ovarian was greater than 100 µM each time. The TGI with SNB-19 CNS, in the test on TK-10 renal, with U251 CNS, in the test with UACC-257 melanoma and with UACC-62 melanoma was greater than 100 µM each time.

As to `CN=C(NC)N(C)c1nc(=[N+](C)C)ss1`, the TGI in the test on 786-0 renal was greater than 100 µM; in the test with A549 NSCLC, greater than 100 µM; in the test with CAKI-1 renal, 98.3 µM; in the test on HOP-62 NSCLC, greater than 100 µM; with HT29 colon it was greater than 100 µM; with IGROV1 ovarian, greater than 100 µM. Further, the TGI in the test with K-562 leukemia, in the test with LOX IMVI melanoma, with NCI-H460 lung, with RXF 393 renal, with SF-268 CNS and in the test on SK-MEL-28 melanoma was greater than 100 µM throughout. The TGI in the test with SK-OV-3 ovarian, with SNB-19 CNS, in the test on TK-10 renal, in the test with U251 CNS, with UACC-257 melanoma and in the test on UACC-62 melanoma was greater than 100 µM throughout.

(Values after PubChem BioAssay (NCI).)
